{"source": "patent US11311514B2", "about": "“Pharmaceutical composition for preventing or treating pruritus, containing pyrazole derivative as active ingredient, and screening method for detecting same” (Seoul National University R&DB Foundation, priority 2017, dated 2022)", "key": {"[1]": {"target": "T1, human histamine 1 receptor (hH1R) (Homo sapiens, UniProt P35367)", "T1 construct": "expressed in transfected cells; host or cells: HEK 293T cells, transient transfection", "T1 sequence (P35367 whole entry)": "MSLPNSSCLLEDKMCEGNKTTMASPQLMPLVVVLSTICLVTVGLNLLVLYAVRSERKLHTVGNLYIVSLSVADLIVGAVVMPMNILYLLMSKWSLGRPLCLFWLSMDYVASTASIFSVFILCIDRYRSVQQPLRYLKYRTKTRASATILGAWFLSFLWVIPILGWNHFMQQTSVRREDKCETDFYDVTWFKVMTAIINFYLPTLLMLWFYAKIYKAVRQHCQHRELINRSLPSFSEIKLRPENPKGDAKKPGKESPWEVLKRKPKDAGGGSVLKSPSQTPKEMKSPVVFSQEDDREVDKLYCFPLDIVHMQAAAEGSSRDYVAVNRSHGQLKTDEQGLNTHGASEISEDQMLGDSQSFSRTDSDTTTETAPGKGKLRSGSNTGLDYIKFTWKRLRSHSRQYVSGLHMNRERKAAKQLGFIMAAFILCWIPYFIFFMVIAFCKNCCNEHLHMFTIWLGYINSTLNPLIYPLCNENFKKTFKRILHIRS", "assay": "Human histamine 1 receptor antagonist assay (calcium dye fluorescence, histamine-stimulated)", "format": "cell-based", "conditions": "HEK 293T cells transiently expressing hH1R; final 12 μM compound, 1 μM histamine, 0.2% DMSO; control 5 μM diphenhydramine; read-out: reduction of fluorescence, taking the inhibition by histamine plus diphenhydramine as 100%", "protocol": "HEK 293T cells were transiently transfected with 2 μg of human histamine 1 receptor, followed by seeding at the density of 4000 cells/well. The cells were cultured in a 37° C., 5% CO2 incubator for 48 hours.\nThe subsequent procedure was performed using Biomex FX. After eliminating the medium, flo-3 AM dye dissolved in Na-HEPES buffer (5 mM KCl, 2 mM MgCl2, 140 mM NaCl, 10 mM NaOH-HEPES, pH7.2) at the concentration of 2.5 μM was added to the plate (25 ? /well) of the vehicle and experimental groups, and flo-3 AM dye dissolved in Na-HEPES buffer containing 5 uM diphenhydramine dissolved therein at the concentration of 2.5 μM was added to the plate (25 ? /well) of the control group, followed by culture in a 37° C., 5% CO2 incubator for 30 minutes.\nDuring the culture, a compound plate was prepared. […]\nUpon completion of the incubation, dye was discarded and Na-HEPES buffer was added thereto (25 ? /well) for washing, and then buffer was added thereto (25 ? /well) again (excluding control group wells). […] Finally, 25 ? of the compound was added to each well of the assay plate containing 25 ? of buffer, followed by reading the plate (final 12 μM compound, 1 μM histamine, 0.2% DMSO).\nThe experimental results were analyzed using a microplate reader (Flexstaion Π^384, Molecular Devices). Fluorescence assay was performed (Ex 488 nm, Em 535 nm) at the intervals of 3.2 seconds for 80 seconds. […]"}, "[2]": {"system": "mouse motor ability", "assay": "Rota rod motor condition test", "format": "in vivo", "conditions": "30 mg/kg intraperitoneal, tested after 30 minutes; Rota rod speed 4 to 40", "protocol": "The test mouse was placed on the Rota rod device and then the speed was raised from 4 to 40 until the mouse fell. When the mouse fell, it was moved to a cage. The procedure was repeated three times a day for 3 consecutive days to adapt the mouse to the Rota rod device. After three days of adaptation, the mouse was moved to a cage where it was stabilized.\nAs for the control group, 3% DMSO was dissolved in physiological saline (0.9% saline), which was intraperitoneally injected (50 ? /mouse). The animal model mice were intraperitoneally injected with the pharmaceutical composition of Example 1 (30 mg/kg) dissolved in physiological saline (0.9% saline) containing 3% DMSO (50 ? /mouse). The mice were also placed in the same cage above for 30 minutes. The experiment above was repeated three times like the adaptation test above, and the average time of falling was calculated."}, "[3]": {"system": "psoriatic mouse model (Aldara cream, 5% imiquimod)", "assay": "Pruritus evaluation in psoriatic mouse model", "format": "in vivo, C57BL6 mice", "conditions": "30 mg/kg intraperitoneal on day 8 after 7 days Aldara cream; counted for 30 minutes; normal group 20.00, control group 71.00", "protocol": "First, a psoriatic mouse model was constructed. A psoriatic mouse model was prepared according to the instruction described Pain. 2016 November; 2536-2543. Zoletil (15 mg/kg) was mixed with saline at the ratio of 1:1 and then mixed with Rompun (5 mg/kg), which was intraperitoneally injected in 7-week-old C57BL6 mice to anesthetize the mice. The mouse back was primarily depilated in the size of 2.5×2 cm using a clipper, and then secondly depilated using a straight blade. Vaseline cream was rubbed on the depilated area of the normal group for 7 days using a cotton swap. Aldara cream (62.5 mg, 5% imiquimod) was rubbed on the depilated area of the control group and the experimental group for 7 days using a cotton swap.\n(§1) Next, pruritus evaluation in the psoriatic mouse model was performed. On day 8, the normal group and control group mice were intraperitoneally injected with 3% DMSO dissolved in physiological saline (0.9% saline) (50 ? /mouse). […] 30 minutes later, their behaviors were recorded with a digital camera for 30 minutes. The number of scratches was recorded while playing back the recorded video file on a computer. A continuous action of scratching the skin from when the mouse lifted its hind foot off the floor and to when the mouse put it back on the floor was considered 1 scratch, and the number of scratches counted for 30 minutes was used as index for evaluating pruritus."}, "[4]": {"assay": "Solubility in blood (selection of final compound)", "format": "physicochemical", "conditions": "result in words; no method given"}, "[5]": {"target": "T2, MRGPR X1 (Homo sapiens, UniProt Q96LB2)", "T2 construct": "expressed in transfected cells", "T2 sequence (Q96LB2 whole entry)": "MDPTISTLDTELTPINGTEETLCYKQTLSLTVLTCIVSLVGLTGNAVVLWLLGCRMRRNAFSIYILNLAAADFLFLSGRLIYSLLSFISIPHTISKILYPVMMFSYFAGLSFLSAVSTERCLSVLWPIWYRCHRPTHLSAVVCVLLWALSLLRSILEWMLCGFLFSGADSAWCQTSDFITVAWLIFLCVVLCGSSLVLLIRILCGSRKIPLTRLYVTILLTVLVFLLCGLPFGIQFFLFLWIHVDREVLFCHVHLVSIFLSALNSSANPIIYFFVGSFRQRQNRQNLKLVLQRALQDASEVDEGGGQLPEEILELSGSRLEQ", "assay": "MRGPR X1 screening assay (calcium dye fluorescence, chloroquine-stimulated)", "format": "cell-based", "conditions": "Mrgpr X1 stable HEK 293T FRT cells; final 12 μM compound, 500 μM chloroquine, 0.2% DMSO", "protocol": "Human MRGPRX1 gene was sub-cloned in pcDNA5 FRT vector, which was transfected into HEK 293T FRT cells. The cells were cultured in a 37° C., 5% CO2 incubator for 48 hours.\nTo confirm the amount with which a single colony is well formed, the transfected cells were serially diluted and then transferred and distributed on 100 mm dish evenly. The medium was replaced with a fresh medium containing 50/g/ ? of hygromycin every 3-4 days. The cells were cultured until colonies were formed.\nOnce colonies were formed, only a single colony was transferred to a 24 well plate, followed by culture. Then, well grown cells were transferred to a 6 well plate, followed by culture. Antibiotic selection was performed. […]\nFirst, MRGPR X1 stable cells were counted to make 8000 cells/well, followed by seeding in a Poly-D-Lysine coated plate 384 well black/clear plate. […]\nUpon completion of the incubation, dye was discarded and Na-HEPES buffer was added thereto (25 ? /well) for washing, and then buffer was added thereto (25 ? /well) again. 25 ? of the primary candidate material was added to each well of the assay plate containing 25 ? of buffer, followed by reading the plate (final 12 μM compound, 500 μM chloroquine, 0.2% DMSO). […]\nThe experimental results were analyzed using a microplate reader (Flexstaion Π^384, Molecular Devices). […]"}, "[6]": {"system": "dry skin mouse model", "assay": "Pruritus evaluation in dry skin mouse model", "format": "in vivo, C57BL6 mice", "conditions": "30 mg/kg intraperitoneal on Day 5 of acetone/ether/water treatment; recorded 30 min later; control group 130.00", "protocol": "First, a dry skin mouse model was constructed. A dry skin mouse model was prepared according to the instruction described Jpn J Pharmacol. 2002 March; 88(3):285-92. ENTOBAR® was mixed with physiological saline (0.9% saline) at the ratio of 1:1, which was intraperitoneally injected in 7-week-old C57BL6 mice (20 ? /mouse) to anesthetize the mice. Then, the hair of the right nape was shaved using a clipper. Ethyl ether and acetone were mixed at the ratio of 1:1. The mixture was soaked in absorbent cotton and the right nape was rubbed with the absorbent cotton for 1 minute. Then, absorbent cotton soaked with water was used to rub in the same way. This process was performed once in the morning and once in the afternoon for 5 days.\nas §1, with “dry skin” for “psoriatic”, “In” for “On day 8,”, “afternoon on Day 5, the” for “normal group and”"}, "[7]": {"system": "chloroquine mouse model", "assay": "Pruritus evaluation in chloroquine mouse model", "format": "in vivo, C57BL6 mice", "conditions": "30 mg/kg intraperitoneal, 30 min before chloroquine 200 μg s.c. dorsal; control group 425.00", "protocol": "(§2) Seven week-old C57BL6 mice were placed in a new cage and adapted for 30 minutes before starting the experiment. As for the control group, 3% DMSO was dissolved in physiological saline (0.9% saline), which was intraperitoneally injected (50 ? /mouse). The animal model mice were intraperitoneally injected with the pharmaceutical composition of Example 1 (30 mg/kg) dissolved in physiological saline (0.9% saline) containing 3% DMSO (50 ? /mouse). The mice were also ? placed in the same cage above for 30 minutes.\n(§3) Then, control and animal model mice were subcutaneously injected with 200 μg/50 ? of chloroquine on the dorsal side, and their behaviors were recorded with a digital video camera for 30 minutes. The number of scratches was recorded while playing back the recorded video file on a computer. A continuous action of scratching the skin from when the mouse lifted its hind foot off the floor and to when the mouse put it back on the floor was considered 1 scratch, and the number of scratches counted for 30 minutes was used as index for evaluating pruritus."}, "[8]": {"system": "histamine mouse model", "assay": "Pruritus evaluation in histamine mouse model", "format": "in vivo, C57BL6 mice", "conditions": "30 mg/kg intraperitoneal, 30 min before histamine 500 μg s.c. dorsal; control group 118.38", "protocol": "as §2\nas §3, with “500” for “200”, “histamine” for “chloroquine”"}}, "data": [{"smiles": "Cc1ccc(-n2nc(C)cc2C(=O)NCCCC(=O)O)cc1", "note": "[Example 1]", "values": [{"measurement": "inhibition at 12 µM", "setting": "[1]", "result": "~94", "unit": "%"}, {"measurement": "motor condition ability (average time of falling) versus control group", "setting": "[2]", "result": "no significant difference"}, {"measurement": "average number of total scratches", "setting": "[3]", "result": 1.00}, {"measurement": "solubility in blood", "setting": "[4]", "result": "excellent solubility in blood"}, {"measurement": "decline of fluorescence analysis result versus chloroquine alone", "setting": "[5]", "result": "approximately 54%"}, {"measurement": "average number of total scratches accumulated for 30 minutes", "setting": "[6]", "result": 14.00, "unit": "times"}, {"measurement": "average number of total scratches accumulated for 30 minutes", "setting": "[7]", "result": 150.50, "unit": "times"}, {"measurement": "average number of total scratches accumulated for 30 minutes", "setting": "[8]", "result": 39.90, "unit": "times"}]}]}
